Results taken from US12410178B2, “Small cationic ortho-5,15-di-heteroaryl-porphyrin derivatives and their applications in photoinactivation of microorganisms” (UNIVERSIDADE DE COIMBRA, priority 2019, dated 2025).

Legend:
[1] = n-Octanol:PBS partition ratio (modified shake-flask); type: physicochemical; settings: equal volumes
From the text: n-Octanol:PBS partition ratio: a modification of the shake-flask method was employed to determine the equilibrium concentrations of the photosensitizer in n-octanol and in phosphate-buffered saline (PBS) mixed in equal volumes, using the typical fluorescence band of the same photosensitizer and the ratio of the fluorescences after dilution by the same factor with dimethylsulfoxide.

[2] = Singlet oxygen quantum yield; type: physicochemical; settings: excitation 355 nm, reference phenalenone
From the text: Singlet Oxygen Quantum Yield: The experiments were run at room temperature. The solutions were excited at 355 nm using a Nd-YAG laser (Spectra-Physics Quanta-Ray GRC-130) and the phosphorescence of singlet oxygen collected at 1270 nm in a Hamamatsu R5509-42 photomultiplier, cooled to 193 K in a liquid nitrogen chamber, after selection of the wavelength with a monochromator with 600 lines grading. A Newport filter model 10LWF-1000-B was used in the emission to avoid scattering and fluorescence. Phenalenone was used as a reference of singlet oxygen generator, ΦΔ^Ref=0.98. Extrapolating to time-zero the decays of the singlet molecular oxygen emissions measured for sample and the reference solutions at a given laser intensity, we obtained a relation between emission intensities as a function of laser intensity, that is identical to the relation between the singlet molecular oxygen quantum yields. The singlet oxygen quantum yields were obtained by comparing the linear dependence between and the energy of the laser pulse for both the sample and the reference for the same absorption of sample and reference at the excitation wavelength, taking into account the singlet oxygen quantum yield of phenalenone.

[3] = Photobleaching / photodecomposition experiments; type: physicochemical
Protocol: Photobleaching experiments: Photodecomposition experiments were made dissolving the photosensitizers in water with 9% dimethylsulfoxide. A volume of 3 mL was placed in a cuvette and irradiated ensuring that all the light hits the solution. The porphyrins were irradiated using a LED light with emission at 415 nm and an effective output power of 0.27 mW. Photodecomposition quantum yield (Φpd) is defined as the ratio between the rate of disappearance of photosensitizer molecules vd and the rate of absorption of photons vp.
The intensity of its longest wavelength absorption band at 622 nm decreased by less than ΔA=0.001 after 15,000 second of illumination corresponding to an effective absorption of ca. 4 J. This places an upper limit of 0.001 to the photodecomposition quantum yield.

[4] = Optical absorption, molar absorption coefficient; type: physicochemical; settings: water with 9% dimethylsulfoxide
Protocol: Optical Absorption: The ultra-violet visible optical absorption (UV-vis) spectra used in the control of the synthesis were recorded on Hitachi U-2001 or Shimadzu 2100 spectrophotometers using spectroscopic grade solvents. The UV-Vis-NIR optical absorption was recorded with an Agilent Cary5000 UV-Vis-NIR Spectrophotometer in the determination of the molar absorption coefficient and with Shimadzu UV-2100 spectrometer in routine measurements. The absorption spectra were recorded in the wavelengths from 300 nm up to 800 nm. Molar absorption coefficients were determined by using Beer-Lambert's law. For each compound, a minimum of 6 solutions were prepared in concentrations ranging from 10^−7 to 10^−6 M, giving absorbance values between 0.1 and 1.
The absorptivities of the compounds and other photophysical and photobiological properties were measured as described in the Materials and Methods. […] This is indicative of negligible aggregation between the molecules, which exist mostly as monomers at the studied concentrations in the selected solvents. […] The same table also presents the fluorescence quantum yield (ΦF), singlet oxygen generation (ΦΔ) and the logarithm of the n-octanol:water partition coefficient (log POW). […]

[5] = system: Staphylococcus aureus ATCC 25925 biofilms; assay: PDI phototoxicity towards biofilms (CFU); type: cell-based
Protocol: Phototoxicity towards biofilms was evaluated after biofilm growth overnight. Assays were performed with biofilms from Staphylococcus aureus ATCC 25925. Initially, bacteria cultures were diluted 1:9 in Brain Heart Infusion (BHI) (Kasvi®, Brazil). The microorganisms were centrifuged (1500 rpm, 10 min) and washed twice with phosphate-buffered saline (PBS). Aliquots of the diluted bacterial suspensions were inoculated into 24-well flat-bottom sterile polystyrene microplates and incubated for 24 h at 37° C. For PDI experiments, the plates with biofilms were incubated with 5.2 nM of the photosensitizer for 30 min in the dark at room temperature. Wells used as controls were incubated with PBS only. After that, the plates were illuminated with a specially designed light source named Biotable®. The Biotable® was composed by 24 LED lamps that deliver a uniform light fluence rate of 30 mW/cm^2 in the wavelength range between 400-650 rm. […] After this time, the colonies were counted and the colony-forming units (CFU) determined.
For the phototoxicity study, Staphylococcus aureus ATCC 25925 biofilms grown on 24-well flat-bottom sterile polystyrene microplates were incubated with 5.2 nM of the cationic ortho-5,15-di-heteroaryl porphyrin with Formula (IIa) for 30 min in the dark at room temperature. […] After this time, the colonies were counted and CFU determined. […]

[6] = Fluorescence quantum yield; type: physicochemical; settings: standard TPP in toluene
Protocol: Fluorescence Emission: The fluorescence emission spectra were recorded in a Horiba Scientific Spectrofluorometer Fluoromax-4. The spectra were collected from 550 nm up to 800 nm using standard cuvettes of 1 cm of optical path. Fluorescence quantum yields (ΦF) were obtained comparing the area of integrated fluorescence of the samples with that of a reference fluorimetric compound with known ΦF, corrected by the absorption of sample and reference at the excitation wavelength and by the refractive indices of the solvents used for the standard and reference solution. Tetraphenylporphyrin (TPP) in toluene (ΦF=0.11) was used as standard. The absorbance of the solutions at the excitation wavelength was 0.01.

Compound: Cn1cc[n+](C)c1C1=C2C=CC3=[N+]2[Zn@]24[n]5c(ccc51)C=C1C=CC(=[N+]12)C(c1n(C)cc[n+]1C)=c1ccc([n]14)=C3 [Formula (IIa), 5,15-bis(1,3-dimethylimidazol-2-yl)porphyrinate zinc (II) diiodide]
- log Pow [1]: −1.16
- ΦΔ singlet oxygen generation quantum yield [2]: 0.75
- photodecomposition quantum yield ([3]; LED 415 nm, water with 9% dimethylsulfoxide): ≤ 0.001
- decrease ΔA of longest wavelength absorption band at 622 nm ([3]; after 15,000 second of illumination, effective absorption ca. 4 J): < 0.001
- ε(λ)/10^3 molar absorption coefficient ([4]; at 407 nm): >20 10^3 M^−1 cm^−1
- λ (most intense absorption band) [4]: 407 nm
- log CFU at 5.2 nM, S. Aureus biofilm ([5]; 5.2 nM, biofilm, 5 J/cm^2, 400-650 nm, 30 min incubation): 7
- reduction of bacteria in the biofilm ([5]; ca. 5 nM, 5 J/cm^2 of white light): 7 orders of magnitude
- ΦF fluorescence quantum yield [6]: 0.10
